Data set [1] deals with soybean plants transformed with the DMO-encoding polynucleotide construct (Events 1-4). To be noted: early pre-emergence; highest rate 5040 g/ha, 4.5 lb/acre, 9× labeled rate. How it is done: (§1) Transgenic soybean plants were obtained by Agrobacterium transformation of soybean cotyledonary nodes using standard procedures and a binary vector containing the DMO-encoding polynucleotide given as SEQ ID NO:7, which encodes the polypeptide of SEQ ID NO:8. Four transgenic soybean events were prepared and designated Events 1-4. […] Non-transgenic soybean plants were used as controls.
Transgenic and control soybean seeds were planted into 3.5-inch square plastic pots containing Redi-earth™ (Scotts-Siena Horticultural Products Co., Marysville, Ohio). […] The pots were placed on capillary matting in 35 inch×60 inch fiberglass watering trays for overhead and/or sub-irrigation for the duration of the test period so as to maintain optimum soil moisture for plant growth and were fertilized with Osmocote (14-14-14 slow release; Scotts-Siena Horticultural Products Co., Marysville, Ohio) at the rate of 100 gm/cu.ft. to sustain plant growth for the duration of greenhouse trials. […]
(§2) Treated plants in greenhouse trials were visually assessed at a particular day after treatment (DAT) for injury on a scale of 0 to 100 percent relative to untreated control plants, with zero representing “no” injury and 100% representing “complete” injury or death. Data were collected and analyzed using suitable statistical methods.

For data set [2] the test system is unchanged. How it is done: as §1
Transgenic and control soybean seeds were planted into 3.5-inch square plastic pots containing Redi-earth™ (Scotts-Siena Horticultural Products Co., Marysville, Ohio). […] The pots were placed on capillary matting in 35 inch×60 inch fiberglass watering trays for overhead and/or sub-irrigation for the duration of the test period so as to maintain optimum soil moisture for plant growth and were fertilized with Osmocote (14-14-14 slow release; Scotts-Siena Horticultural Products Co., Marysville, Ohio) at the rate of 100 gm/cu.ft. to sustain plant growth for the duration of greenhouse trials.
The plants were grown in greenhouses at 27°/21° C. day/night temperature with relative humidity between 25%-75% to simulate warm season growing conditions of late spring. A 14 h minimum photoperiod was provided with supplemental light at about 600 μE as needed.
as §2
The spray nozzle was kept at a height of about 16 inches above the top of the plant material for spraying. The spray volume was 10 gallons per acre or 93 liters per hectare.

In the next data set the test system is MARESTAIL (CA) Resistant. In words: Control of marestail by dicamba or glyphosate, treated at rosette leaf stage. To be noted: dicamba formulation 280 g/ha. It counts as in vivo, Conyza canadensis. The source says:
(§3) Marestail is one of the major weeds in a crop field. Marestail is effectively controlled by glyphosate, but the development of methods for controlling this common weed with other herbicides is important to minimize opportunities for herbicide tolerance to develop.

Another data set relates to MARESTAIL (KY) Resistant. The description is as above. It counts as in vivo, Conyza canadensis. To be noted: dicamba formulation 280 g/ha.
Description: as §3

For the next data set, the system named is Marestail Resistant (KY). In words: Dicamba, glyphosate and their combination on marestail. Type of data set: in vivo, Conyza canadensis. To be noted: dicamba formulation 40 g/ha.
Data set [3] deals with corn inbreds 01CSI6 and LH244. To be noted: 0.5 lb/a at V3 followed by 1 lb/a at V8. From the text:
(§4) Transgenic corn plants were produced by the methods known in the art such as WO9506722 and US patent application 20040244075. […] Six events from each of the six constructs were used. […] The entire plot was fertilized uniformly to obtain an agronomically acceptable crop. A soil insecticide such as Force® 3G (Syngenta Crop Protection, Greensboro, N.C., USA) at 5 oz. per 1000 ft. of row for control of corn rootworm was applied at planting time. If black cutworm infestation was observed, POUNCE® 3.2EC at 4 to 8 oz. per acre rate (FMC Corporation, Philadelphia, Pa.) was used. In addition, an insecticide spray program was used to control all above ground lepidopteran pests including European corn borer, corn earworm, and fall armyworm. POUNCE® 3.2EC at 4 to 8 oz. per acre was applied every 3 weeks to control lepidopteran pests; about 4 applications were made. The plot was kept weed free with a pre-emergence application of a herbicide such as Harness® Xtra 5.6 L (Monsanto, St. Louis, Mo.) and Degree Xtra® (Monsanto, St. Louis, Mo.).
(§5) Brace root injury was evaluated visually by counting the number of plants in a row showing an “atypical” morphology of having the brace roots fused as compared to a typical morphology of “finger-like” structure.

Data set [4] concerns transgenic corn plants transformed with DNA constructs carrying DMO. To be noted: for Percentage brace root injury: 0.5 lb/a at V3 followed by 1 lb/a at V8.
Description: This expression element contains first intron and flanking UTR exon sequences from the rice actin 1 gene and includes 12 nt of exon 1 at the 5′ end and 7 nt of exon 2 at the 3′ end), and a 3′UTR (e.g. TaHsp17). Nucleotide sequences/an or patent references for various expression elements are disclosed in co-pending application U.S. Ser. No. 60/891,675.
as §4, §5

The subject of data set [5] is transformed cotton plants comprising a DMO coding region. The source says: Several DNA constructs carrying a DMO coding region as disclosed herein with a transit peptide (e.g., PsRbcS CTP, CTP1, CTP2) under the control of plant gene expression elements such as a promoter (e.g. PC1SV, FMV, or e35S), and a 3′UTR (e.g. E6; Accession #U30508) were produced and transformed into cotton (Gossypium hirsutum) as follows. Nucleotide sequences/and or patent references for various expression elements are disclosed in co-pending application U.S. Ser. No. 60/891,675. Media used are noted in Table 13.
Cotton transformation was performed, for instance as described according to U.S. Patent Application Publication 20040087030, via an embryogenic approach. Explants of cotton cv Coker 130 were grown in vitro and with a liquid suspension of Agrobacterium tumefaciens carrying a DNA construct of interest, using selection on kanamycin containing media. Putative transgenic plantlets were then transferred to soil to obtain mature cotton plants.

Like-named read-outs stand apart in the source and are kept apart here.

As to `COc1c(Cl)ccc(Cl)c1C(=O)O` [dicamba, 3,6-dichloro-o-anisic acid], the “injury to the transgenic plants” value in data set [1] is on record as “less than 10%”. Also, in data set [2] (approximately 2× rate of application of 1122 g/ha), the “injury to transgenic dicamba tolerant plants” value was “less than 2%”. For the same molecule, the “injury to transgenic plants” value in data set [2] (at sowing + post-emergence, overall dicamba rate 10080 g/ha, 9 lb/acre, 18× labeled rate) is “less than 20%”. The “injury to transgenic events” value in data set [2] (late pre-emergence + post-emergence, overall 10080 g/ha, 9 lb/acre, 18× labeled rate) was “less than 20%”. The “injury in the transgenic events” value in data set [2] (late pre-emergence at soil cracking, 5040 g/ha, 4.5 lb/acre, 9× labeled rate) is given as “less than 5%”. The “% Injury (21 DAT)” value is listed as “about 83%” in the data set on MARESTAIL (CA) Resistant and “about 91%” with MARESTAIL (KY) Resistant. The “% Injury (18 DAT)” value in the data set with Marestail Resistant (KY) is reported as “about 52%”. Also, the “Percentage brace root injury” value in data set [3] (01CSI6, susceptible inbred to dicamba) worked out at 95.4%; in data set [3] (LH244, resistant inbred to dicamba), 93.8%; in data set [4] (pMON73699 (PC1SV/I-OsAct1/DMO-Wmc/TaHsp17)), 93.2%; in data set [4] (pMON73700 (PC1SV/I-OsAct1/CTP1/DMO-Wmc/TaHsp17)), 74.4%; in data set [4] (pMON73703 (e35S/I-OsAct1/CTP1/DMO-Wmc/TaHsp17)), 68.8%; in data set [4] (pMON73704 (e35S/I-OsAct1/DMO-Wmc/TaHsp17)), 91.3%. Besides, the “Percentage brace root injury” value in data set [4] (pMON73715 (PC1SV/I-OsAct1/CTP2syn/DMO-Wmc/TaHsp17)) was 68.2%; in data set [4] (pMON73716 (PC1SV/I-OsAct1/TaWaxy/DMO-Wmc/TaHsp17)), 78.8%. The “level of brace root injury” value in data set [4] (constructs coding for a DMO linked to a CTP (pMON73716, pMON73700, pMON73715, pMON73703)) is “lower level of brace root injury”; in data set [4] (constructs coding for a DMO without CTP (pMON73699, pMON73704)), “higher level of brace root injury”. The “tolerance to subsequent post-emergent treatment” value in data set [5] (0.5 lb/acre at V3-4 followed by 1 or 2 lb/acre at V5 or later stages) is “still tolerant”. The tolerance result in data set [5] (post-emergent at V4-5 growth stage, 561 g ae/ha (0.5 lb/a)) was “tolerant”. Further, the “tolerance of R1 transgenic seeds and plants” value in data set [5] (pre-emergence or pre-emergence and post-emergence dicamba treatment) is given as “tolerant”.

Source of the values: patent publication US8629328B2 (Monsanto Technology LLC, priority 2006, dated 2014).
